The source of these data is article PMC9490042 (iScience, 2022).

What all share (experiment): steady-state tryptophan fluorescence quenching titration in PBS
Format in all cases: binding

Experiment [1] concerns the target T1, bovine serum albumin (BSA) (Bos taurus, UniProt P02769).
The target in experiment [2] is hen egg-white lysozyme (HEWL) (Gallus gallus, UniProt P00698).
In experiment [3] the target is T1, bovine serum albumin (BSA). This is another data set of the same source.

Counter-ions that a name gives are not always drawn. Like-named read-outs stand apart in the source and are kept apart here.

What is called Kd is the equilibrium constant for the complex coming apart. Low values mean higher affinity, high ones lower affinity.

T1 sequence (P02769 25-607): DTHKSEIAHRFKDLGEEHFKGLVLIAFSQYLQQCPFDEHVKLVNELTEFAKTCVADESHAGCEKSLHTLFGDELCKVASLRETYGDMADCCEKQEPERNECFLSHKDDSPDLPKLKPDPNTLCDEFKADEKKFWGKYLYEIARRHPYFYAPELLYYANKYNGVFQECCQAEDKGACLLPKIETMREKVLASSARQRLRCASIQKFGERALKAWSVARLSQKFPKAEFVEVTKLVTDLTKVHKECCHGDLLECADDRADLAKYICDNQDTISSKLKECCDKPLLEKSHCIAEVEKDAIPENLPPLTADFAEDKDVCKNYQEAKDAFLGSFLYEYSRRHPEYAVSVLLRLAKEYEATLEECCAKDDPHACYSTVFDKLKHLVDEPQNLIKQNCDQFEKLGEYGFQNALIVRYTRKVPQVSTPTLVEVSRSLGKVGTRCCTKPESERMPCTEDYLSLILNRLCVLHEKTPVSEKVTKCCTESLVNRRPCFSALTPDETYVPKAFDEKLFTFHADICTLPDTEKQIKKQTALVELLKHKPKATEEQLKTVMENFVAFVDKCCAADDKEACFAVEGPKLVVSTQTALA
hen egg-white lysozyme (HEWL), sequence (P00698 19-147): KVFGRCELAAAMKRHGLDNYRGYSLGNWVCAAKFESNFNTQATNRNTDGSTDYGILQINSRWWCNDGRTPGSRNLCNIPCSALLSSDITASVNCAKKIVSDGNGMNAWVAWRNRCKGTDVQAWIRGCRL

For the molecule `Cn1cc(C2=C(c3ccc(Cl)cc3Cl)C(=O)NC2=O)c2ccccc21` [SB216763], the figures for the Kd in experiment [1] and in experiment [2] were 5.2 ± 1.2 µM and 1.7 ± 0.7 µM, respectively.
In experiment [3], `COc1cccc2c1C(=O)c1c(O)c3c(c(O)c1C2=O)C[C@@](O)(C(=O)CO)C[C@@H]3O[C@H]1C[C@H](N)[C@H](O)[C@H](C)O1` [Doxorubicin] had a Kd of 16.5 ± 2.5 µM.
Molecule `CCN(CC)CCCC(C)Nc1c2ccc(Cl)cc2nc2ccc(OC)cc12` (stereo not shown) [Quinacrine dihydrochloride] yielded a Kd in experiment [3] of 4.6 ± 1.1 µM.
